Results taken from PubChem BioAssay AID1963966 (Molecular Pharmacology Branch, DTP, NCI, 2024).

Tested on: 935938-334-R-J1-PDC spheroids with HUVEC/MSC, viability
Assay: Anticancer human tumor 935938-334-R-J1-PDC patient-derived small intestine adenocarcinoma cell line growth inhibition [PI3K]
Settings: for IC50: curve of first compound; for viability, T/C: stronger effect = lower value; active means viability on the fitted dose curve at most 10% of control; inactive means the rest
Excerpt: Combinatorial screen of targeted agents with the PI3K inhibitors inavolisib, alpelisib, duvelisib, and copanlisib in multi-cell type tumor spheroids
A high-throughput screen of multi-cell type tumor spheroids was designed to identify active combinations of targeted small molecules and PI3K pathway inhibitors. Complex spheroids include a stromal component modeled by human endothelial cells (HUVEC) and fibroblasts modeled by human mesenchymal stem cells (MSCs). The concentration ranges selected for each drug and investigational agent were based upon clinically achievable concentrations if the clinical Cmax of the agent was known.
Compounds. The drugs and investigational agents: inavolisib (NSC800729), alpelisib (NSC765974), duvelisib (NSC772469), copanlisib (NSC816437), ipatasertib (NSC767898), afuresertib (NSC778305), talazoparib (NSC767125), sapanisertib (NSC764658), selumetinib (NSC741078), tovorafenib (DAY101, NSC766906), vemurafenib (NSC761431), ravoxertinib (NSC781343), sotorasib (NSC818433), MRTX1133 (NSC 836407), abemaciclib (NSC 768073), palbociclib (NSC758247), venetoclax (NSC 766270), SY5609 (NSC837396), enzalutamide (NSC755605), and darolutamide (NSC825331), were obtained from the National Cancer Institute (NCI) Developmental Therapeutics Program Chemical Repository. The FDA-approved anticancer drug set is available from the NCI Developmental Therapeutics Program. […] The stock solutions were prepared in dimethyl sulfoxide (DMSO, Sigma-Aldrich, St. Louis, MO, cat. D2650) at 800-fold the tested concentration and stored at -70 degrees C prior to their use. All drugs and investigational agents were tested over a range starting from a high concentration at or near the clinical Cmax and decreasing in half-log increments. If the clinical Cmax for an agent had not been determined, the highest concentration tested was 10 microM.
Cell Culture. All cells were maintained in an incubator at 37 degrees C and 5% CO2 with 95% humidity. The PDC lines were cultured according to standard operating procedures established by the NCI PDMR (https://pdmr.cancer.gov/sops/default.htm). All PDCs were thawed and cultured in Matrigel-coated flasks prepared with a working solution of 1X Ham's F-12 nutrient mix, without supplementation (Invitrogen, Waltham, MA, cat. 11765054), 100 U/mL penicillin-streptomycin (Invitrogen, cat. 15140122), and 2.5% Matrigel (Corning Inc., Corning, NY, cat. 354248) for the first three passages. The 354836-022-R-J1-PDC, 475296-252-R-J1-PDC, and 997726-040-R-J2-PDC lines were cultured in 6A media, which includes advanced DMEM/F-12 (Thermo Fisher Scientific, cat. 12634028), 10 mM HEPES (Thermo Fisher Scientific, cat. 15630080), 1X GlutaMAX supplement (Thermo Fisher Scientific, cat. 35050061), 0.1 mg/mL primocin (InvivoGen, San Diego, CA, cat. ant-pm-2), 10% defined fetal bovine serum, heat inactivated (HyClone Laboratories Inc., Logan, UT, cat. SH30070.03HI), 50% L-WRN conditioned media (ATCC, cat. CRL-3276), 1.25 mM N-Acetyl-L-cysteine (Sigma-Aldrich, cat. A9165), 10 mM nicotinamide (Sigma-Aldrich, cat. N0636), 1X B-27 supplement (Thermo Fisher Scientific, cat. 17504044), 1X N-2 supplement (Thermo Fisher Scientific, cat. 17502048), and 10 microM Y-27632 dihydrochloride (Tocris Bioscience, Bristol, United Kingdom, cat. 1254). The 624824-186-R-J2-PDC line was cultured in 6C/Colon 1B media, which includes all 6A media components plus 50 ng/mL human EGF recombinant protein (Thermo Fisher Scientific, cat. PHG0311). […]

[1] = second compound 0.00316 µM, first compound 0.0316 µM
[2] = second compound 0.00316 µM, first compound 0.1 µM
[3] = second compound 0.01 µM, first compound 0.0316 µM
[4] = second compound 0.01 µM, first compound 0.1 µM
[5] = second compound 0.0316 µM, first compound 0.0316 µM
[6] = second compound 0.0316 µM, first compound 0.1 µM
[7] = second compound 0.1 µM, first compound 0.0316 µM
[8] = second compound 0.1 µM, first compound 0.1 µM
[9] = second compound 0.316 µM, first compound 0.0316 µM
[10] = second compound 0.316 µM, first compound 0.1 µM
[11] = second compound 1 µM, first compound 0.0316 µM
[12] = second compound 1 µM, first compound 0.1 µM
[13] = second compound 0.00316 µM, first compound 0.316 µM
[14] = second compound 0.00316 µM, first compound 1 µM
[15] = second compound 0.00316 µM, first compound 3.16 µM
[16] = second compound 0.00316 µM, first compound 10 µM
[17] = second compound 0.01 µM, first compound 0.316 µM
[18] = second compound 0.01 µM, first compound 1 µM
[19] = second compound 0.01 µM, first compound 3.16 µM
[20] = second compound 0.01 µM, first compound 10 µM
[21] = second compound 0.0316 µM, first compound 0.316 µM
[22] = second compound 0.0316 µM, first compound 1 µM
[23] = second compound 0.0316 µM, first compound 3.16 µM
[24] = second compound 0.0316 µM, first compound 10 µM
[25] = second compound 0.1 µM, first compound 0.316 µM
[26] = second compound 0.1 µM, first compound 1 µM
[27] = second compound 0.1 µM, first compound 3.16 µM
[28] = second compound 0.1 µM, first compound 10 µM
[29] = second compound 0.316 µM, first compound 0.316 µM
[30] = second compound 0.316 µM, first compound 1 µM
[31] = second compound 0.316 µM, first compound 3.16 µM
[32] = second compound 0.316 µM, first compound 10 µM
[33] = second compound 1 µM, first compound 0.316 µM
[34] = second compound 1 µM, first compound 1 µM
[35] = second compound 1 µM, first compound 3.16 µM
[36] = second compound 1 µM, first compound 10 µM
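Further: compound exposure lasted seven days before viability was read.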
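Wherever viability, T/C is given: percent of vehicle DMSO treated spheroid viability so 100% = untreated.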

CC(=O)c1c(C)c2cnc(Nc3ccc(N4CCNCC4)cn3)nc2n(C2CCCC2)c1=O + CC(Nc1ccc2c(c1)OCCn1cc(N3C(=O)OCC3C(F)F)nc1-2)C(N)=O
0.0262 µM: IC50 (second compound 1 µM)
0.0472 µM: IC50 (second compound 0.1 µM)
0.0623 µM: IC50 (second compound 0.00316 µM)
0.059 µM: IC50 (second compound 0.0316 µM)
0.0499 µM: IC50 (second compound 0.316 µM)
inactive: viability, T/C (second compound 0.00316 µM, first compound 0.000316 µM) 82.7% | viability, T/C (second compound 0.00316 µM, first compound 0.001 µM) 66% | viability, T/C (second compound 0.00316 µM, first compound 0.00316 µM) 97.2% | viability, T/C (second compound 0.00316 µM, first compound 0.01 µM) 90.4% | viability, T/C [1] 95.5% | viability, T/C [2] 24.6% | viability, T/C (second compound 0.01 µM, first compound 0.000316 µM) 81.3% | viability, T/C (second compound 0.01 µM, first compound 0.001 µM) 70.7% | viability, T/C (second compound 0.01 µM, first compound 0.00316 µM) 92.6% | viability, T/C (second compound 0.01 µM, first compound 0.01 µM) 86.7% | viability, T/C [3] 82.7% | viability, T/C [4] 26.5% | viability, T/C (second compound 0.0316 µM, first compound 0.000316 µM) 67.7% | viability, T/C (second compound 0.0316 µM, first compound 0.001 µM) 65.7% | viability, T/C (second compound 0.0316 µM, first compound 0.00316 µM) 112% | viability, T/C (second compound 0.0316 µM, first compound 0.01 µM) 81.4% | viability, T/C [5] 98.2% | viability, T/C [6] 20.3% | viability, T/C (second compound 0.1 µM, first compound 0.000316 µM) 76.2% | viability, T/C (second compound 0.1 µM, first compound 0.001 µM) 81.7% | viability, T/C (second compound 0.1 µM, first compound 0.00316 µM) 72.4% | viability, T/C (second compound 0.1 µM, first compound 0.01 µM) 91.3% | viability, T/C [7] 66.4% | viability, T/C [8] 19.3% | viability, T/C (second compound 0.316 µM, first compound 0.000316 µM) 63.5% | viability, T/C (second compound 0.316 µM, first compound 0.001 µM) 65.1% | viability, T/C (second compound 0.316 µM, first compound 0.00316 µM) 74.8% | viability, T/C (second compound 0.316 µM, first compound 0.01 µM) 77.2% | viability, T/C [9] 70.7% | viability, T/C [10] 19.5% | viability, T/C (second compound 1 µM, first compound 0.000316 µM) 47.9% | viability, T/C (second compound 1 µM, first compound 0.001 µM) 57.5% | viability, T/C (second compound 1 µM, first compound 0.00316 µM) 82.2% | viability, T/C (second compound 1 µM, first compound 0.01 µM) 67.3% | viability, T/C [11] 47.3% | viability, T/C [12] 20.6%
0.0617 µM: IC50 (second compound 0.01 µM)

CCCS(=O)(=O)Nc1ccc(F)c(C(=O)c2c[nH]c3ncc(-c4ccc(Cl)cc4)cc23)c1F + CC(Nc1ccc2c(c1)OCCn1cc(N3C(=O)OCC3C(F)F)nc1-2)C(N)=O
6.91 µM: IC50 (second compound 0.00316 µM)
5.83 µM: IC50 (second compound 0.316 µM)
7.08 µM: IC50 (second compound 0.0316 µM)
inactive: viability, T/C [1] 100% | viability, T/C [2] 101% | viability, T/C [13] 162% | viability, T/C [14] 103% | viability, T/C [15] 92.6% | viability, T/C [16] 30.3% | viability, T/C [3] 136% | viability, T/C [4] 89.5% | viability, T/C [17] 136% | viability, T/C [18] 103% | viability, T/C [19] 118% | viability, T/C [20] 28.9% | viability, T/C [5] 92.3% | viability, T/C [6] 101% | viability, T/C [21] 98.3% | viability, T/C [22] 110% | viability, T/C [23] 100% | viability, T/C [24] 28.6% | viability, T/C [7] 93.6% | viability, T/C [8] 78.1% | viability, T/C [25] 104% | viability, T/C [26] 118% | viability, T/C [27] 88.5% | viability, T/C [28] 31.3% | viability, T/C [9] 84.2% | viability, T/C [10] 92.4% | viability, T/C [29] 84.6% | viability, T/C [30] 102% | viability, T/C [31] 78.9% | viability, T/C [32] 24.6% | viability, T/C [11] 72.5% | viability, T/C [12] 66.9% | viability, T/C [33] 86.5% | viability, T/C [34] 62.9% | viability, T/C [35] 77% | viability, T/C [36] 22.9%
6.88 µM: IC50 (second compound 0.1 µM)
5.37 µM: IC50 (second compound 1 µM)
7.58 µM: IC50 (second compound 0.01 µM)

CNC(=O)c1ccc(N2C(=S)N(c3ccc(C#N)c(C(F)(F)F)c3)C(=O)C2(C)C)cc1F + CC(Nc1ccc2c(c1)OCCn1cc(N3C(=O)OCC3C(F)F)nc1-2)C(N)=O
inactive: viability, T/C [1] 99.4% | viability, T/C [2] 108% | viability, T/C [13] 99.5% | viability, T/C [14] 102% | viability, T/C [15] 97.1% | viability, T/C [16] 86% | viability, T/C [3] 99.9% | viability, T/C [4] 89.9% | viability, T/C [17] 108% | viability, T/C [18] 78.3% | viability, T/C [19] 102% | viability, T/C [20] 97.6% | viability, T/C [5] 102% | viability, T/C [6] 95.6% | viability, T/C [21] 90.7% | viability, T/C [22] 110% | viability, T/C [23] 97.8% | viability, T/C [24] 86.3% | viability, T/C [7] 80.4% | viability, T/C [8] 99.4% | viability, T/C [25] 90.3% | viability, T/C [26] 93.8% | viability, T/C [27] 79.2% | viability, T/C [28] 105% | viability, T/C [9] 86.9% | viability, T/C [10] 72.7% | viability, T/C [29] 73.7% | viability, T/C [30] 83.1% | viability, T/C [31] 82.4% | viability, T/C [32] 64.7% | viability, T/C [11] 61.6% | viability, T/C [12] 66.5% | viability, T/C [33] 72.7% | viability, T/C [34] 43.7% | viability, T/C [35] 61.5% | viability, T/C [36] 53.3%
3.16 µM: IC50 (second compound 1 µM)
> 10 µM: IC50 (second compound 0.00316 µM) | IC50 (second compound 0.01 µM) | IC50 (second compound 0.0316 µM) | IC50 (second compound 0.1 µM) | IC50 (second compound 0.316 µM)
